Measured values from ChEMBL document CHEMBL5576127, “New CDDO Arylboronate Ester Derivatives with High Selectivity and Low Toxicity” (J Med Chem, 2024).
Active and inactive are the calls of the source. The calls are words filed in the database; no cut-off is given here.

Legend:
[1] = Acute toxicity in ip dosed ICR mouse assessed as mortality rate by measuring ratio at 2.16 logarithm of dose relative to total number of mouse; assay type: organism-based; conditions: in vivo
[2] = tested on: SGC-7901; experiment: Antiproliferative activity against human SGC-7901 cells assessed as inhibition of cell proliferation incubated for 48 hrs by MTT assay; assay type: functional, cell-based; conditions: SGC-7901, 48 h
[3] = tested on: BGC-823; experiment: Antiproliferative activity against human BGC-823 cells assessed as inhibition of cell proliferation preincubated with H2O2 for 2 hrs followed by compound addition and measured after 48 hrs by MTT assay; assay type: functional, cell-based
[4] = tested on: BGC-823; experiment: Induction of apoptosis in human BGC-823 cells assessed as late apoptotic cells at 1 uM incubated for 48 hrs by Annexin V-FITC/PI staining based flow cytometric analysis ( Rvb = 5.61 %); assay type: functional
[5] = Cytotoxicity against human GES1 cells assessed as inhibition of cell proliferation incubated for 48 hrs by MTT assay; assay type: toxicity, cell-based
[6] = Cytotoxicity against human L02 cells assessed as inhibition of cell proliferation incubated for 48 hrs by MTT assay; assay type: toxicity, cell-based
[7] = tested on: BGC-823; experiment: Antitumor activity against human BGC-823 cells xenografted in BALB/c nude mouse assessed as tumor growth inhibition at 5 mg/kg, ip administered for 21 days relative to control; assay type: functional; conditions: BGC-823, 504 h, time 21 day, read-out: TGI
[8] = tested on: BGC-823; experiment: Induction of apoptosis in human BGC-823 cells assessed as viable cells at 1 uM incubated for 48 hrs by Annexin V-FITC/PI staining based flow cytometric analysis ( Rvb = 90.09 %); assay type: functional; conditions: read-out: Activity
[9] = tested on: NCI-N87; experiment: Antiproliferative activity against human NCI-N87 cells assessed as inhibition of cell proliferation incubated for 48 hrs by MTT assay; assay type: functional, cell-based; conditions: NCI-N87, 48 h
[10] = tested on: BGC-823; experiment: Induction of ROS generation in human BGC-823 cells assessed as cells with green fluorescence at 1 uM incubated for 24 hrs by DCFH-DA staining based analysis relative to control; assay type: functional
[11] = tested on: MCF7; experiment: Antiproliferative activity against human MCF7 cells assessed as inhibition of cell proliferation incubated for 48 hrs by MTT assay; assay type: functional, cell-based; conditions: MCF7, 48 h
[12] = tested on: MGC-803; experiment: Antiproliferative activity against human MGC-803 cells assessed as inhibition of cell proliferation incubated for 48 hrs by MTT assay; assay type: functional, cell-based; conditions: MGC-803, 48 h
[13] = Acute toxicity in ip dosed ICR mouse assessed as lethal dose; assay type: organism-based; conditions: in vivo
[14] = tested on: HepG2; experiment: Antiproliferative activity against human HepG2 cells assessed as inhibition of cell proliferation incubated for 48 hrs by MTT assay; assay type: functional, cell-based; conditions: HepG2, 48 h
[15] = Acute toxicity in ip dosed ICR mouse assessed as mortality rate by measuring ratio at 1.57 logarithm of dose relative to total number of mouse; assay type: organism-based; conditions: in vivo
[16] = Selectivity index, ratio of IC50 for cytotoxicity against human GES1 cells to IC50 for antiproliferative activity against human BGC-823 cells in presence of H2O2; assay type: toxicity, cell-based; conditions: GES1 cells and BGC-823 cells, read-out: Ratio IC50
[17] = Acute toxicity in ip dosed ICR mouse assessed as animal death at 2.03 logarithm of dose; assay type: organism-based; conditions: in vivo
[18] = Acute toxicity in ip dosed ICR mouse assessed as mortality rate by measuring ratio at 2.04 logarithm of dose relative to total number of mouse; assay type: organism-based; conditions: in vivo
[19] = Acute toxicity in ip dosed ICR mouse assessed as mortality rate by measuring ratio at 1.80 logarithm of dose relative to total number of mouse; assay type: organism-based; conditions: in vivo
[20] = Binding affinity to DTT in PBS assessed as UV peak appearance at 288 nm at 360 uM by UV-Vis spectra analysis
[21] = tested on: BGC-823; experiment: Induction of apoptosis in human BGC-823 cells assessed as necrotic cells at 1 uM incubated for 48 hrs by Annexin V-FITC/PI staining based flow cytometric analysis ( Rvb = 1.79 %); assay type: functional
[22] = tested on: BGC-823; experiment: Induction of apoptosis in human BGC-823 cells assessed as early apoptotic cells at 1 uM incubated for 48 hrs by Annexin V-FITC/PI staining based flow cytometric analysis ( Rvb = 1.68 %); assay type: functional
[23] = Acute toxicity in ip dosed ICR mouse assessed as mortality rate by measuring ratio at 1.91 logarithm of dose relative to total number of mouse; assay type: organism-based; conditions: in vivo
[24] = Acute toxicity in ip dosed ICR mouse assessed as animal death at 2.16 logarithm of dose; assay type: organism-based; conditions: in vivo
[25] = Acute toxicity in ip dosed ICR mouse assessed as animal death at 1.57 logarithm of dose; assay type: organism-based; conditions: in vivo
[26] = Acute toxicity in ip dosed ICR mouse assessed as mortality rate by measuring ratio at 1.68 logarithm of dose relative to total number of mouse; assay type: organism-based; conditions: in vivo
[27] = Cytotoxicity against human MCF-10A cells assessed as inhibition of cell proliferation incubated for 48 hrs by MTT assay; assay type: toxicity, cell-based
[28] = tested on: BGC-823; experiment: Antiproliferative activity against human BGC-823 cells assessed as inhibition of cell proliferation incubated for 48 hrs by MTT assay; assay type: functional, cell-based; conditions: BGC-823, 48 h

SMILES: COC(=O)[C@]12CCC(C)(C)C[C@H]1[C@H]1C(=O)C=C3[C@@]4(C)C=C(C#N)C(=O)C(C)(C)[C@@H]4CC[C@@]3(C)[C@]1(C)CC2 [BARDOXOLONE METHYL]
- Ratio [1]: 1
- IC50 [2]: 600 nM
- IC50 [3]: 500 nM
- Activity [4]: 24.5%
- IC50 at 48 h [5]: 400 nM
- IC50 at 48 h [6]: 400 nM
- inhibition in vivo at 5 mg/kg [7]: 51.7%
- viability at 1 µM [8]: 61.3%
- IC50 [9]: 800 nM
- Activity [10]: 97.6%
- IC50 [11]: 1200 nM
- IC50 [12]: 900 nM
- LD50 [13]: 61.7 mg/kg
- IC50 [14]: 500 nM
- Ratio [15]: 0
- selectivity ratio [16]: 1
- Activity [17]: Toxic
- Ratio [18]: 0.83
- Ratio [19]: 0.6
- Activity [20]: Active
- Activity [21]: 7.6%
- Activity [22]: 6.59%
- Ratio [23]: 0.67
- Activity [24]: Toxic
- Activity [25]: Non-Toxic
- Ratio [26]: 0.25
- IC50 at 48 h [27]: 800 nM
- IC50 [28]: 500 nM
